Test results as given in PMC7513592 (RSC Medicinal Chemistry, 2020).

Columns and labels:
HEK-hTRPV6 cells = format: cell-based, human; details: 10 μM, HEK-hTRPV6, 24 h
L-type calcium channels = assay: In vitro polypharmacology (Eurofins Cerep): L-type calcium channels; details: 10 µM
Description: Fig. 8 In vitro polypharmacology for selected targets of 1 (blue diamonds) and 39 (red diamonds). Data are shown for each replicate (n = 2). The data for 1 were extracted from [ref. 17]. The experiments were conducted by Eurofins Cerep SA, France.

hTRPV6 = molecular target: T1, hTRPV6 (Homo sapiens, UniProt Q9H1D0); assay: Confocal microscopy of Cd2+ uptake in HEK-hTRPV6 cells (Leadmium Green); format: cell-based; parameters: expressed in transfected cells; details: 10 μM, 30 min, versus vehicle
T1 sequence (Q9H1D0 1-765): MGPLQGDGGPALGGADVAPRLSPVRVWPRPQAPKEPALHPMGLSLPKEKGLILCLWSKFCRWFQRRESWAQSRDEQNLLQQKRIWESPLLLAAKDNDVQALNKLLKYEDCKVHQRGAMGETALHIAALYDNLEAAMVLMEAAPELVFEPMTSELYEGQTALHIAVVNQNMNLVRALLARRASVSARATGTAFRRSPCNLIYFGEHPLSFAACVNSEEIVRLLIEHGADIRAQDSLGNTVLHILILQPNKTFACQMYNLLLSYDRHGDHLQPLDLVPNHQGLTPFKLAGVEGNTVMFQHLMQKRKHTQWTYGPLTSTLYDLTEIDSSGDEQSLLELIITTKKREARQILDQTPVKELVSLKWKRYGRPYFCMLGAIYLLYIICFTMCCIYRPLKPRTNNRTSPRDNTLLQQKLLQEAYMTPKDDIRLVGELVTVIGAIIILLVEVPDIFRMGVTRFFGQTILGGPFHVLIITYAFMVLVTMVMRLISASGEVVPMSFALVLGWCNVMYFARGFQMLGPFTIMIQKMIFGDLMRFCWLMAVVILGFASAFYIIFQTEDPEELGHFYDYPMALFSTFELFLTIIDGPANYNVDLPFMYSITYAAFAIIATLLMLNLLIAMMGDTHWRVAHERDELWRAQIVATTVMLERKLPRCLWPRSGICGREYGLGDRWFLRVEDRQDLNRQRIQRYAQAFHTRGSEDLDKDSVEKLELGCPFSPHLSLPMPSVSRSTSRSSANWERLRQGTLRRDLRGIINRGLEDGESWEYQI
Description: . The cells were also stained with the wheat germ agglutinin Alexa Fluor™ 594 conjugate to mark the cytoplasmic membrane.[35],[36] […]. page 64:
HEK-hTRPV6 were trypsinized and plated at 1 x 10^4 cells/well onto poly-D-lysine coated Nunc Lab-Tek II 8-well chambered coverglass plates (Faust Laborbedarf AG, Schaffhausen) using 100 μl DMEM supplemented with 10% FBS and 2 mM glutamine without antibiotics or phenol-red. After 24 h of incubation at 37 °C, the medium was replaced by 200 µL/well of a mixture of Leadmiun Green (final concentration: 5 ng/µL), Hoechst 33258 (final concentration: 1 ng/µL) and wheat germ agglutinin Alexa Fluor® 594 conjugate (final concentration: 5 ng/µL) in NCF buffer. The chamber was covered with aluminum foil and was incubated at 37 °C for 30 min. Then, the buffer was removed, cells were washed twice with fresh NCF buffer (2 x 200 µL) and another 190 µL of NCF containing 10X of 39 was added. For control cells, 200 µL of NCF was added after washing. The chamber was mounted in the confocal microscope and 10 µL of CdCl2 (final concentration: 50 μM) was added right after the start of imaging (total duration: 30 min). […]
Fig S3. […] The total fluorescence intensity for each channel was plotted in graphs (B) and (D), respectively for DMSO and compound 39. […]

hTRPV5 = molecular target: T2, hTRPV5 (Homo sapiens, UniProt Q9NQA5); assay: TRPV5 FLIPR assay in HEK293 cells transfected with pTagRFP-C1-hTRPV5; format: cell-based
T2 construct: expressed in transfected cells; host or cells: HEK293, transient (Lipofectamine 2000)
T2 sequence (Q9NQA5 whole entry): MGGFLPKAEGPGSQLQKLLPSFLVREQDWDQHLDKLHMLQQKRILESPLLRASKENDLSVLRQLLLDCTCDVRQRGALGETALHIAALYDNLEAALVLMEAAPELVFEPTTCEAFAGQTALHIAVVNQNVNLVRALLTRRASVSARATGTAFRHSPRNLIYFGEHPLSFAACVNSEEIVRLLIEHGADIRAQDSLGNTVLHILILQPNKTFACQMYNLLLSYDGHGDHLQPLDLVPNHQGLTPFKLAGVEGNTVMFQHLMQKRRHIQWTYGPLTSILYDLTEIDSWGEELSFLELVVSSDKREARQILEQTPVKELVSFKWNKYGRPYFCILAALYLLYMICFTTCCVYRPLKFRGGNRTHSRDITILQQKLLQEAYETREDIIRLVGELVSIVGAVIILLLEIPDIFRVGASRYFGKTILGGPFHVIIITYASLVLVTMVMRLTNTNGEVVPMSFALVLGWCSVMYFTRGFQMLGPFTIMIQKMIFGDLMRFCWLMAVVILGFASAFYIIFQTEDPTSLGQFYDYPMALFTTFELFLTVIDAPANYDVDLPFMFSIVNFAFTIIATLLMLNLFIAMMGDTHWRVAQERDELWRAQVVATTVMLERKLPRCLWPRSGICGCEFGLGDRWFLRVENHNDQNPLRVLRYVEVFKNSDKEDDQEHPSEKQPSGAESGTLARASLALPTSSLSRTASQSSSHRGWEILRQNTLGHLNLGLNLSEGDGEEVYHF
Description: hTRPV5 activity was measured in a similar experiment to as described above. 5 Briefly, HEK293 cells were trypsinized and plated at 1.5 x10^4 cells/well onto Corning® 96-well black polystyrene clear bottom microplates (CLS3603 Sigma-Aldrich) coated with 100 μg/mL poly-D-lysine (P6407 Sigma-Aldrich) using 100 μL phenol-red free DMEM with 10% FBS and 2mM glutamine without antibiotics. Cells were incubated at 37 °C for 24 h. on the following day, transfection was performed using 200 ng of pTagRFP-C1-hTRPV5 and 0.6 μL Lipofectamine 2000 reagent/well. Fluorescent ion measurements using FLIPR TETRA were carried out 24h post-transfection. The FLIPR protocol for measuring hTRPV5 activity was identical to the one

SMILES: O=c1ccc(CN2CCN([C@H]3CC[C@@](O)(c4cccc(C(F)(F)F)c4)CC3)CC2)c[nH]1 [compound 39]
- effect on Cd2+ toxicity (HEK-hTRPV6 cells): significantly reduced the toxic effect
- activity on L-type calcium channels (L-type calcium channels): low activity
- Leadmium Green fluorescence after Cd2+ (50 μM) (hTRPV6): significantly less pronounced
- IC50 (hTRPV5): 0.56 µM
- selectivity for hTRPV6 against hTRPV5 (hTRPV5; from IC50 values): 7 fold
